Consider two molecules from patent US5258300A, “Method of inducing lysine overproduction in plants” (Molecular Genetics Research and Development Limited …, priority 1988, dated 1993).

Assay [1] has as its system leaf disks from water control plant 101. Put plainly: Leaf disk AEC screen, water control plant 101. It is filed as cell-based, Nicotiana tabacum SR1. As to the method:
(§1) Plant tissue was initially screened for expression of the introduced dap A gene by evaluating resistance to the lysine analog S(2-aminoethyl)cysteine(AEC). AEC is a potent inhibitor of dihydrodipicolinic acid synthase of plants, but the bacterial DHDPS is much less sensitive to it. Leaf disks were prepared from surface-sterilized leaves as described in the transformation protocol. The disks were placed, (four disks per plate, two plates per treatment) on shooting medium supplemented with 1 mM L-arginine and AEC at 0, 0.1, 0.2 or 0.4 mM. Plates containing shooting medium supplemented with 75 μg/ml kanamycin were included for each plant tested to check the selectable marker. After one week at 26° C. in the light, the individual leaf disks were weighed and the average fresh weight and standard deviation were determined for each treatment.

Assay [2] relates to seedlings of self-pollinated 101. Briefly: AEC resistance in seedlings, progeny of 101. It is filed as in vivo, Nicotiana tabacum SR1. Conditions: Nicotiana tabacum, 336 h, two weeks postplating, read-out: Avg. Root Length. As to the method: (§2) Tobacco plant 327 flowered and was allowed to self-pollinate and produce seed. Mature, dry seed was collected, surface-sterilized with 10% bleach, and rinsed well with sterile water. Seeds were plated (50 seeds per plate, two plates per treatment) on gridded germination plates (1/4 MS salts, 2.5 gm/l Gelrite) containing AEC at 0, 1, 10, 30, 100 and 300 μM AEC. Seeds from self-pollinated 101 were treated identically as controls. All seeds germinated in 3-4 days. After 10 days, the number of green seedlings on each plate was counted. After two weeks, the seedlings were gently pulled from the Gelrite and root lengths were measured.

Assay [3] relates to seedlings of self-pollinated 327. Put plainly: AEC resistance in seedlings, progeny of 327. It is filed as in vivo, Nicotiana tabacum SR1. Particulars: Nicotiana tabacum, 336 h, two weeks postplating, read-out: Avg. Root Length. As to the method:
as §2

The subject of assay [4] is leaf disks from plant 327. Briefly: Leaf disk AEC screen, dap A+ plant 327. It is filed as cell-based, Nicotiana tabacum SR1. Here is the method:
as §1

The subject of assay [5] is DHDP synthase activity in the leaves of 327. Put plainly: DHDP synthase activity (o-aminobenzaldehyde assay) in leaf extracts of 327. It is filed as biochemical, Nicotiana tabacum SR1 (E. coli dap A gene). Particulars: 327 leaf extract. As to the method: (§3) Young leaves of 327 and seed-grown NT-SR1 plants were extracted as follows. One to two grams of deribbed leaves were ground at 4° C. in 2 ml extraction buffer (0.1M potassium phosphate (pH 7.5 at 4° C.), 2 mM EDTA, 1 mM β-mercaptoethanol, 10 mM sodium pyruvate) in the presence of 0.14 gm polyvinylpyrrolidone per gram of tissue. The extract was filtered through Miracloth (Calbiochem) and then centrifuged for 10 minutes at 8000×g (4° C.). The supernatant was slowly brought to 40% saturation by adding finely ground solid ammonium sulfate at 4° C. with gentle stirring. The precipitate was removed by centrifugation. The supernatant was brought to 66% ammonium sulfate saturation and the 40-66% precipitate was collected by centrifugation as before. The pellet was resuspended in column buffer (50 mM Tris-HCl (pH 7.5 at 4° C.), 1 mM EDTA, 10 mM sodium pyruvate, 10% glycerol) and passed through a Sephadex G-25 column (Sigma) to desalt.
(§4) Protein concentrations were determined by the dye-binding method of Bradford (REF) using bovine serum albumin fraction V powder in distilled water as the standard.
(§5) Dihydrodipicolinic acid synthase activity was monitored using the o-aminobenzaldehyde (ABA) assay (Yugari et al., J. Biol. Chem., 240, 4710-4716 (1965)). […] The pink color was allowed to develop for one hour at 25° C. and then the optical density was measured at 520 nm.

Assay [6] concerns the target T1, DHDP synthase activity in NT-SR1 leaves (Nicotiana tabacum, UniProt Q42948).
T1 construct: Young leaves of 327 and seed-grown NT-SR1 plants were extracted as follows; from tissue; host or cells: young leaves of seed-grown NT-SR1 plants, 40-66% ammonium sulfate fraction of the leaf extract
T1 sequence (Q42948 34-359): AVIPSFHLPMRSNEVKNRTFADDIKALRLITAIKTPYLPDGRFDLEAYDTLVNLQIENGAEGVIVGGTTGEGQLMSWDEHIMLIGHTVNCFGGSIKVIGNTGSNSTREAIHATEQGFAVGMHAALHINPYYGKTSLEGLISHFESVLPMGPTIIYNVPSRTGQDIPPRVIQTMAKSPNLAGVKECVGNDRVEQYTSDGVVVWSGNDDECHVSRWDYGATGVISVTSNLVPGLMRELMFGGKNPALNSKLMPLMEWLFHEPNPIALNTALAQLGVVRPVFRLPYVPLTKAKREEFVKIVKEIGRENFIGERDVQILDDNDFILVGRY
Briefly: DHDP synthase activity (o-aminobenzaldehyde assay) in leaf extracts of seed-grown NT-SR1. It is filed as biochemical. Conditions: NT-SR1 leaf extract. As to the method:
as §3, §4, §5

Assay [7] relates to Dihydrodipicolinic acid synthase. Particulars: in vitro; cited from earlier work.

As to `NCCSCC(N)C(=O)O` (stereo not drawn) [AEC, S(2-aminoethyl)cysteine], the activity at 100 µM is 32% in assay [1] (Nicotiana tabacum, foliar, 168 h, AEC 0.1 mM, plant 101 leaf disks, after one week, read-out: Fresh Weight); 0% in assay [2] (AEC 100 μM); 21% in assay [3] (AEC 100 μM); 88% in assay [4] (Nicotiana tabacum, foliar, 168 h, AEC 0.1 mM, plant 327 leaf disks, after one week, read-out: Fresh Weight). The activity at 200 µM was 15% in assay [1] (Nicotiana tabacum, foliar, 168 h, AEC 0.2 mM, plant 101 leaf disks, after one week, read-out: Fresh Weight) and 81% in assay [4] (Nicotiana tabacum, foliar, 168 h, AEC 0.2 mM, plant 327 leaf disks, after one week, read-out: Fresh Weight). The activity at 400 µM in assay [1] (Nicotiana tabacum, foliar, 168 h, AEC 0.4 mM, plant 101 leaf disks, after one week, read-out: Fresh Weight) worked out at 10%; in assay [4] (Nicotiana tabacum, foliar, 168 h, AEC 0.4 mM, plant 327 leaf disks, after one week, read-out: Fresh Weight) it was 71%. Further, the “Leaf disk growth in the presence of AEC” value in assay [1] (control plants) was “strongly inhibited”; in assay [4] (putative dap A+ plants), “remain green and growing”. The Leaf disk appearance entry in assay [1] (control plants, medium containing at least 0.2 mM AEC) is “brown and shriveled”. The activity at 1 µM in assay [2] (AEC 1 μM) amounted to 46%; in assay [3] (AEC 1 μM) it was 111%. Moreover, the activity at 3 µM worked out at 33% in assay [2] (AEC 3 μM) and 87% in assay [3] (AEC 3 μM). In addition, the results for the activity at 10 µM in assay [2] (AEC 10 μM) and in assay [3] (AEC 10 μM) were 27% and 51%, respectively. Further, the activity at 30 µM came out at 18% in assay [2] (AEC 30 μM) and 46% in assay [3] (AEC 30 μM).

Turning to `NCCCC[C@H](N)C(=O)O` [L-lysine], the “Inhibition of DHDP synthase activity” value was “completely resistant” in assay [5] (100 μM L-lysine), 14% in assay [5] (500 μM L-lysine) and “no activity could be detected” in assay [6] (500 μM L-lysine). In assay [6] (100 μM L-lysine), testing at 100 µM gave an inhibition of 87%. In addition, the “Lower sensitivity of E. coli DHDPS to inhibition by lysine compared to the same enzyme from plants” value in assay [7] is “at least 200 fold”.

A word on the inhibition: it is the relative decrease from the control value, in per cent. Low values mean a weak effect, high ones a strong effect.
